Measurements from patent USRE48461E1, “Modulation of androgen receptor expression” (Ionis Pharmaceuticals, Inc., priority 2012, dated 2021).

Columns and labels:
[1] = tested on: CWR22-RV1 cells; assay: CWR22-RV1 cell proliferation (CellTiter 96); format: cell-based, human; details: RNAiMax, 6 days
Protocol: (§1) CWR22-RV1 cells were plated and transfected using RNAiMax reagent (Life Technologies) with ISIS oligonucleotides at 1.7 nM, 5.0 nM, 16.7 nM, or 50 nM concentrations. ISIS 347526 was included as a negative control. After a treatment period of 6 days, the target reduction and proliferative capacity of the cancer cells was measured.
(§2) Antisense inhibition of AR full-length mRNA was measured with the RTS3559 primer probe set. The results are presented in Table 63 as percent inhibition relative to non-treated cells. The reduction in V7 splice variant of the AR mRNA was also measured by RT-PCR using SYBR Green staining (Hu, R. et al., Cancer Res. 2009. 69: 16-22). The results are presented in Table 64, as percent reduction, relative to non-treated cells. Cell proliferation was measured with CellTiter 96® AQueous One Solution Cell Proliferation kit (Promega), following the manufacturer's instructions. Results are presented in Table 65 as percent inhibition of proliferation, relative to non-treated cells.

[2] = tested on: V7 splice variant of the AR mRNA; assay: AR V7 splice variant mRNA in CWR22-RV1 cells (RT-PCR SYBR Green); format: cell-based, human; details: RNAiMax, 6 days
Protocol: as §1, §2

[3] = tested on: AR-V7; assay: Western blot of AR-V7 in MDV3100-resistant C4-2B cells; format: cell-based, human; details: C4-2B MR cells (Example 16)
Protocol: ISIS 549372, ISIS 549434, and ISIS 554221 at 1 μM concentration of antisense oligonucleotide were each added to the culture media at 1 μM concentration for free uptake by the cells. After a treatment period of 2 days, cells were harvested in RIPA buffer containing protease inhibitors. The presence of bands for full-length AR, as well as the variant form, AR-V7, was detected by western blot using AR antibody (N-20, Santa Cruz).
Western analysis of full-length AR, as well as the AR-V7 variant, was also conducted in a manner similar to the assay described above.

[4] = tested on: AR mRNA; assay: AR mRNA in C4-2B cells by free uptake (hAR_LTS00943); format: cell-based, human; details: 24 hrs; for Percent inhibition of AR full-length mRNA: free uptake
Protocol: Cells were plated at a concentration of 1,000 cells/well in 96-well plates to measure cell proliferation, and at 4,000 cells/well to measure target reduction. ISIS 549458, ISIS 549372, ISIS 549434, and ISIS 554221 were added individually at 0.04 μM, 0.20 μM, 1.00 μM, or 5.00 μM. After an incubation period of 24 hrs, mRNA levels were measured using hAR_LTS00943.

[5] = Full-length oligonucleotide concentration in kidney and liver of cynomolgus monkeys; details: cynomolgus monkey, 40 mg/kg subcutaneously
Protocol: Prior to the study, the monkeys were kept in quarantine for a 30-day period, during which the animals were observed daily for general health. The monkeys were 2-4 years old and weighed between 2 and 4 kg. Thirteen groups of four randomly assigned male cynomolgus monkeys each were injected subcutaneously with ISIS oligonucleotide or PBS. PBS solution or ISIS oligonucleotides, at a dose of 40 mg/kg, were administered with a loading regimen consisting of four doses on the first week of the study (days 1, 3, 5, and 7), followed by a maintenance regimen consisting of once weekly administration starting on Day 14 (weeks 2 to 6). Subcutaneous injections were performed in clock-wise rotations at 4 sites on the back; one site per dose. The injection sites were delineated by tattoo, while sedated using ketamine, and were separated by a minimum of 3 cm.
The concentrations of the full-length oligonucleotide in the kidney and the liver of select treatment groups were measured. The method used is a modification of previously published methods (Leeds et al., 1996; Geary et al., 1999) which consist of a phenol-chloroform (liquid-liquid) extraction followed by a solid phase extraction.

[6] = Plasma BUN and creatinine in cynomolgus monkeys; details: cynomolgus monkey, 40 mg/kg s.c., day 44
[7] = cynomolgus monkey, in vivo, sc, 40 mg/kg

| Sequence | Percent inhibition of cell proliferation ([1]; dose 5.0 nM) | Percent inhibition of cell proliferation ([1]; dose 16.7 nM) | Percent inhibition of cell proliferation ([1]; dose 50.0 nM) | Percent inhibition of AR splice variant, V7 ([2]; dose 5.0 nM) | Percent inhibition of AR splice variant, V7 ([2]; dose 16.7 nM) | Percent inhibition of AR splice variant, V7 ([2]; dose 50.0 nM) | levels of AR-V7 (Western analysis) [3] | AR mRNA expression ([4]; free uptake 0.04-5.00 μM) | Percent inhibition of AR full-length mRNA ([4]; dose 0.04 μM) | Percent inhibition of AR full-length mRNA ([4]; dose 0.20 μM) | Percent inhibition of AR full-length mRNA ([4]; dose 1.00 μM) | Percent inhibition of AR full-length mRNA ([4]; dose 5.00 μM) | Oligonucleotide concentration, Kidney [5] | tolerability: kidney function [6] | Urine protein/creatinine ratio [7] |
| --- | --- | --- | --- | --- | --- | --- | --- | --- | --- | --- | --- | --- | --- | --- | --- |
| GTTGATTTAATGGTTG (all phosphorothioate, sugars by position not given here; further chemistry not fully specified) [ISIS 549458] | 0% | 17% | 40% | 34% | 58% | 82% | reduced levels of full-length AR and AR-V7 | inhibited AR mRNA expression more potently than ISIS 554221 | 16% | 48% | 80% | 86% |  |  |  |
| TTGATTTAATGGTTGC [ISIS 560131] (MOE and (S)-cEt gapmer chemistry, further chemistry not given here) |  |  |  |  |  |  |  |  |  |  |  |  | 2029 μg/g tissue | well tolerated in terms of the kidney function of the monkeys | 0.02 |
